Measurements: patent publication US20210189643A1 (VF Jeanswear LP, priority 2017, published 2021)

Assay: Hydrolysis of modified indigo compound to indigo
Format: physicochemical
Conditions: under hydrolyzing conditions
Description: In some embodiments, the substrate is contacted with a hydrolyzing agent, the hydrolyzing agent being capable of reacting with the modified indigo compound contained within the substrate to convert the modified indigo compound into indigo.
The hydrolysis is performed using any chemical compound or condition that is capable of converting the dye compound to indigo. In some embodiments, the hydrolysis is performed in aqueous compositions which contain a hydrolyzing agent. In other embodiments, the hydrolyzing agent may be selected by one skilled in the art and may include, without limitation, a base, heat, steam, or a combination thereof.

With `O=C1/C(=C2/C(=O)c3ccccc3N2C(=O)c2ccncc2)N(C(=O)c2ccncc2)c2ccccc21` [Compound 37] the “conversion to indigo by hydrolysis” value was “hydrolyzes to indigo”.
